Patent US4251546A, “Process for killing internal helminths using certain 1,1-bis-(2-substituted-3-nitrophenyl)alkane or alkylene derivatives” (ICI Australia Limited, priority 1977, dated 1981)

Experiments:
[1] = tested on: live Fasciola hepatica; experiment: Minimum effective concentration against live Fasciola hepatica in Hedon-Fleig medium (Table 4); details: in vitro, assessed 24 hours after treatment, read-out: MINIMUM EFFECTIVE CONCENTRATION (minimum concentration required to kill Fasciola hepatica)
Protocol: The minimum effective concentration of compounds of formula I against live Fasciola hepatica was tested by the direct application of the test compound, in solution, to live Fasciola hepatica in Hedon-Fleig medium. The results are given in Table 4 where the minimum effective concentration (minimum concentration required to kill Fasciola hepatica) was assessed 24 hours after treatment with the test compound.

[2] = tested on: sheep liver fluke (Fasciola hepatica); experiment: Fluke egg count in faeces and adult fluke count in liver of infected sheep after a single s/c dose (Table 3); format: in vivo; details: for POST MORTEM RESULT No. of adult fluke: liver
Protocol: Compositions suitable for use as experimental injectable solutions were prepared by formulating the compounds as solutions of their salts either in water or in a mixture of water and ethylene glycol or water and polyethylene glycol (PEG200).
Compositions prepared by the method of Example 10 were used as a single dose to test sheep infected with sheep liver fluke (Fasciola hepatica). The number of liver fluke eggs in the faeces was measured at the time of treatment and at selected intervals up to 30 days after treatment. The sheep were killed and the number of adult fluke in the liver counted. The amount and structure of the active ingredient in each composition and the results of treatment of a sheep with that composition are given in the Table 3 below. The compositions were administered by sub-cutaneous injection (s/c).

[3] = tested on: immature fluke; experiment: Effectiveness against immature fluke (Table 3 footnotes); format: in vivo, Fasciola hepatica

Compound: CC(OC(c1cc(Cl)cc([N+](=O)[O-])c1O)c1cc(Cl)cc([N+](=O)[O-])c1O)c1ccccc1 (stereo not shown) [Compound 36]
- minimal effective concentration [1]: 1 µg/mL

Compound: O=[N+]([O-])c1cc(Cl)cc(C(OCc2cc(Cl)cc(Cl)c2)c2cc(Cl)cc([N+](=O)[O-])c2O)c1O [Compound 41]
- minimal effective concentration [1]: 10 µg/mL

Compound: O=[N+]([O-])c1cc(Cl)cc(C(SCc2ccc(Cl)cc2)c2cc(Cl)cc([N+](=O)[O-])c2O)c1O [Compound 49]
- minimal effective concentration [1]: 1.5 µg/mL

Compound: O=[N+]([O-])c1cc(Br)cc(C(c2cc(Br)cc([N+](=O)[O-])c2O)C(F)(F)F)c1O [Compound 56]
- FAECAL EGG COUNT, day 7 ([2]; single dose 6.0 mg/kg): 10 Eggs/g faeces
- FAECAL EGG COUNT, day 14 ([2]; single dose 6.0 mg/kg): 0 Eggs/g faeces
- POST MORTEM RESULT No. of adult fluke ([2]; single dose 6.0 mg/kg): 0
- minimal effective concentration [1]: 1 µg/mL

Compound: O=[N+]([O-])c1cc(Br)cc(C(=C(Cl)Cl)c2cc(Br)cc([N+](=O)[O-])c2O)c1O [Compound 15]
- FAECAL EGG COUNT, day 7 ([2]; single dose 2.0 mg/kg): 0 Eggs/g faeces
- FAECAL EGG COUNT, day 14 ([2]; single dose 2.0 mg/kg): 0 Eggs/g faeces
- POST MORTEM RESULT No. of adult fluke ([2]; single dose 2.0 mg/kg): 0
- FAECAL EGG COUNT, day 7 ([2]; single dose 12.5 mg/kg): 0 Eggs/g faeces
- FAECAL EGG COUNT, day 14 ([2]; single dose 12.5 mg/kg): 0 Eggs/g faeces
- POST MORTEM RESULT No. of adult fluke ([2]; single dose 12.5 mg/kg): 0
- effective against immature fluke ([3]; 10 mg/kg): 91.4%
- effective against immature fluke ([3]; 15 mg/kg): 94%

Compound: O=[N+]([O-])c1ccc(SC(c2cc(Cl)cc([N+](=O)[O-])c2O)c2cc(Cl)cc([N+](=O)[O-])c2O)cc1 [Compound 52]
- minimal effective concentration [1]: 1 µg/mL

Compound: O=[N+]([O-])c1cc(Cl)cc(C(Oc2ccc(F)cc2)c2cc(Cl)cc([N+](=O)[O-])c2O)c1O [Compound 35]
- minimal effective concentration [1]: 5 µg/mL

Compound: CC(C)(C)SC(c1cc(Cl)cc([N+](=O)[O-])c1O)c1cc(Cl)cc([N+](=O)[O-])c1O [Compound 46]
- minimal effective concentration [1]: 0.5 µg/mL

Compound: CC(=O)Nc1ccc(OC(c2cc(Cl)cc([N+](=O)[O-])c2O)c2cc(Cl)cc([N+](=O)[O-])c2O)cc1 [Compound 44]
- minimal effective concentration [1]: 5 µg/mL

Compound: COc1ccc(CSC(c2cc(Cl)cc([N+](=O)[O-])c2O)c2cc(Cl)cc([N+](=O)[O-])c2O)cc1 [Compound 48]
- minimal effective concentration [1]: 1 µg/mL

Compound: O=[N+]([O-])c1cc(Cl)cc(C(OCCC(c2ccccc2)c2ccccc2)c2cc(Cl)cc([N+](=O)[O-])c2O)c1O [Compound 42]
- minimal effective concentration [1]: 1 µg/mL

Compound: O=[N+]([O-])c1cc(Cl)cc(C(c2cc(Cl)cc([N+](=O)[O-])c2O)C(F)(F)F)c1O [Compound 53, 1,1-Bis(5-chloro-2-hydroxy-3-nitrophenyl)-2,2,2-trifluoroethane]
- FAECAL EGG COUNT, day 7 ([2]; single dose 3.0 mg/kg): 460 Eggs/g faeces
- FAECAL EGG COUNT, day 14 ([2]; single dose 3.0 mg/kg): 0 Eggs/g faeces
- POST MORTEM RESULT No. of adult fluke ([2]; single dose 3.0 mg/kg): 0
- FAECAL EGG COUNT, day 7 ([2]; single dose 6.0 mg/kg): 0 Eggs/g faeces
- FAECAL EGG COUNT, day 14 ([2]; single dose 6.0 mg/kg): 0 Eggs/g faeces
- POST MORTEM RESULT No. of adult fluke ([2]; single dose 6.0 mg/kg): 0
- effective against immature fluke ([3]; 15 mg/kg): 97%

Compound: O=[N+]([O-])c1cc(Cl)cc(C(=C(Cl)Cl)c2cc(Cl)cc([N+](=O)[O-])c2O)c1O [Compound 14]
- FAECAL EGG COUNT, day 7 ([2]; single dose 0.5 mg/kg): 0 Eggs/g faeces
- FAECAL EGG COUNT, day 14 ([2]; single dose 0.5 mg/kg): 0 Eggs/g faeces
- POST MORTEM RESULT No. of adult fluke ([2]; single dose 0.5 mg/kg): 0
- FAECAL EGG COUNT, day 7 ([2]; single dose 2.0 mg/kg): 60 Eggs/g faeces
- FAECAL EGG COUNT, day 14 ([2]; single dose 2.0 mg/kg): 0 Eggs/g faeces
- POST MORTEM RESULT No. of adult fluke ([2]; single dose 2.0 mg/kg): 0
- FAECAL EGG COUNT, day 7 ([2]; single dose 12.5 mg/kg): 0 Eggs/g faeces
- FAECAL EGG COUNT, day 14 ([2]; single dose 12.5 mg/kg): 0 Eggs/g faeces
- POST MORTEM RESULT No. of adult fluke ([2]; single dose 12.5 mg/kg): 0
- effective against immature fluke ([3]; 10 mg/kg): 90.6%
- effective against immature fluke ([3]; 15 mg/kg): 100%

Compound: O=[N+]([O-])c1cc(Cl)cc(C(c2cc(Cl)cc([N+](=O)[O-])c2O)C(F)(F)C(F)(F)F)c1O [Compound 54]
- FAECAL EGG COUNT, day 7 ([2]; single dose 2.0 mg/kg): 10 Eggs/g faeces
- FAECAL EGG COUNT, day 14 ([2]; single dose 2.0 mg/kg): 0 Eggs/g faeces
- POST MORTEM RESULT No. of adult fluke ([2]; single dose 2.0 mg/kg): 0
- FAECAL EGG COUNT, day 7 ([2]; single dose 6.0 mg/kg): 0 Eggs/g faeces
- FAECAL EGG COUNT, day 14 ([2]; single dose 6.0 mg/kg): 0 Eggs/g faeces
- POST MORTEM RESULT No. of adult fluke ([2]; single dose 6.0 mg/kg): 0
- effective against immature fluke ([3]; 15 mg/kg): 83%
